Here are results for 2 molecules from patent publication US20120252865A1, “CARBAMATE DERIVATIVES IN PARTICULAR FOR THE TREATMENT OF NEUROLOGICAL DISORDERS” (SIGMA-TAU INDUSTRIE FARMACEUTICHE RIUNITE S.P.A., priority 2009, published 2012).

One assay concerns TRPV1. In words: Selectivity profile: TRPV1. The class given is binding. The settings on record: tested at a multiple of the FAAH IC50. On the procedure: (§1) The compounds of the present invention were also evaluated with regard to their selectivity profile against the following targets: AMT, NAPE-PLD, MAGL, DAGL, CB1/CB2 and TRPV1 according to the procedures described in Maccarrone M., et al., J. Biol. Chem., 2000, 275, 13484, Fezza F., et al., Anal Biochem., 2005, 339, 113, Dinh T. P., et al., 2002, Proc. Natl. Acad. Sci. 99, 10819, Bisogno T., et al., 2003, J. Cell Biol., 163, 463, Maccarrone M., et al., J. Biol. Chem., 2000, 275, 31938, Ross R. A., et al., Br. J. Pharmacol., 2001, 132, 631.

Assay [1] deals with T1, fatty acid amide hydrolase (FAAH, EC 3.5.1.4) (Mus musculus, UniProt O08914).
T1 construct: The reaction was initiated by the addition of mouse brain homogenate (40 μg); from tissue; host or cells: mouse brain homogenate
T1 sequence (O08914 1-579): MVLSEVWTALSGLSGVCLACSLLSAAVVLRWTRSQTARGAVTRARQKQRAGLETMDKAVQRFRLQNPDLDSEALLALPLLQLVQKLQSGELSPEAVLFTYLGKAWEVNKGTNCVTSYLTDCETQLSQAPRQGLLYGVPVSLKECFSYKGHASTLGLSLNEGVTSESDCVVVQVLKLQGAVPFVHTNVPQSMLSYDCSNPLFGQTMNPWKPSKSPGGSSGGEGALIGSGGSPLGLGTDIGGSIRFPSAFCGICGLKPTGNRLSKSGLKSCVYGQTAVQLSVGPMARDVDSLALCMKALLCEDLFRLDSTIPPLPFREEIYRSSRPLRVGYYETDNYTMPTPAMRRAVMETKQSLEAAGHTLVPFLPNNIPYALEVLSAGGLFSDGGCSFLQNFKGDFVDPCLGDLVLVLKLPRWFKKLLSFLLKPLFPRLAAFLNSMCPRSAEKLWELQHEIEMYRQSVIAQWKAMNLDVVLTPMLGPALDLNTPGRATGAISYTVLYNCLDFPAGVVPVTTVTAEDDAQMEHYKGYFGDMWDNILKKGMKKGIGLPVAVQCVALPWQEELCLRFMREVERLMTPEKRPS
In words: FAAH assay: release of [1-14C]AA from [1-14C]AnNH by RP-HPLC. The settings on record: mouse brain homogenate. In kind it is biochemical. On the procedure:
The compounds of the present invention show affinity and inhibit the enzymatic activity of the fatty acid amide hydrolase enzyme.
The assay of FAAH (EC 3.5.1.4) was performed by measuring the release of [1-^14C]AA from [1-^14C]AnNH (52 mCi/mmol), using RP-HPLC. Also [^3H]AnNH (205 Ci/mmol) could be used as substrate, measuring the release of [^3H]AA under the same experimental conditions described below for [1-^14C]AnNH. Compounds of the invention, at various concentrations, were added in 200 μl hydrolase assay buffer (50 mM Tris-HCl, pH 9.0), in 2-ml Eppendorf tubes, 20 min before adding [1-^14C]AnNH2, up to a concentration of 10 μM. The reaction was initiated by the addition of mouse brain homogenate (40 μg), and after incubation at 37° C. for 15 min it was stopped by the addition of 800 μl ice-cold methanol/chloroform (2:1, v/v) with vortexing. This mixture was allowed to stand at room temperature for 30 min, then 240 μl chloroform and 240 μl water were added with vortexing. After 10 min at room temperature, the mixture was centrifuged at 3000 g for 5 min, the upper aqueous layer was removed by suction and the lower organic phase was dried by spinning the samples in a DNA MINI speedvac (Heto-Holten, Denmark), at 100 mbar and 30° C. for 30 min. The residue was dissolved into 50 μl methanol and subjected to RP-HPLC analysis for AA quantitation, as detailed below. FAAH specific activity was expressed as pmol AA released/min/mg protein. Kinetic studies were performed by Lineweaver-Burk analysis, using [1-^14C]AnNH, [1-^14C]ODNHEtOH, or [1-^14C]ODNH2 in the concentration range 0-12 μM. Fitting of the experimental points by a linear regression programme (Kaleidagraph 3.0) yielded straight lines with r values >0.97.

The target of another assay is CB1R (Homo sapiens, UniProt P21554). The assay is described as follows: Selectivity profile: CB1R. The settings on record: tested at a multiple of the FAAH IC50. The class given is binding. As to the method:
as §1

For another assay, the system named is DAGL. The assay is described as follows: Selectivity profile: DAGL. In kind it is biochemical. The conditions noted are these: tested at a multiple of the FAAH IC50. As to the method:
as §1

For the next assay, the system named is AMT. The assay is described as follows: Selectivity profile: AMT. In kind it is cell-based. On the procedure: as §1
Another assay has as its target CB2R (Homo sapiens, UniProt P34972). In words: Selectivity profile: CB2R. In kind it is binding. The settings on record: tested at a multiple of the FAAH IC50. On the procedure: as §1
For the next assay, the system named is mechanical hyperalgesia. In words: Paw withdrawal test for mechanical hyperalgesia (Randall-Selitto analgesimeter). In kind it is in vivo. The settings on record: rat. On the procedure:
The paw withdrawal test was used to assess mechanical hyperalgesia. The nociceptive threshold, expressed in grams, was measured by applying increasing pressure to the left and right hind paws using a Randall-Selitto analgesimeter (Ugo Basile, Varese, Italy). The parameter used to quantify the nociceptive threshold was defined as the pressure (grams) at which the rat withdrew its paw. Rats were habituated to the testing procedures and handling by the investigator in the week prior to the experiment.
Dose response experiments at 10, 30 and 100 mg/kg were also conducted with ST4068, ST3911 and ST3913.

The target of the next assay is NAPE-PLD (Homo sapiens, UniProt Q6IQ20). In words: Selectivity profile: NAPE-PLD. In kind it is biochemical. The settings on record: tested at a multiple of the FAAH IC50. As to the method:
as §1

For a further assay, the target named is T2, MAGL (Homo sapiens, UniProt Q99685).
T2 sequence (Q99685 1-303): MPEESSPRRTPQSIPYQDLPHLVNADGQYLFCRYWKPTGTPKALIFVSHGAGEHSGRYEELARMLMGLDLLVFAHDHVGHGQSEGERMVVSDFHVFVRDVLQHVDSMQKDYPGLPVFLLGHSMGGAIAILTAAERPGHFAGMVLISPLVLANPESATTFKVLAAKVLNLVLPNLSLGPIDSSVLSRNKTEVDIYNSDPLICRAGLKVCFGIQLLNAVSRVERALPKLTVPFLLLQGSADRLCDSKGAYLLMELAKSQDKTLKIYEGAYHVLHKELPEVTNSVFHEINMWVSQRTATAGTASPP
In words: Selectivity profile: MAGL. The conditions noted are these: tested at a multiple of the FAAH IC50. In kind it is biochemical. On the procedure: as §1

In assay [2] the test system is pain. The conditions noted are these: Kathuria S., et al, Nat. Med., 2003; cited from earlier work.
In the next assay the test system is anxiety. The settings on record: Kathuria S., et al, Nat. Med., 2003; cited from earlier work.
Assay [3] concerns pain. The conditions noted are these: Kathuria S., et al, Nat. Med., 2003; cited from earlier work. The source holds these as a separate data set.

Chain of NAPE-PLD (Q6IQ20 whole entry, species assumed): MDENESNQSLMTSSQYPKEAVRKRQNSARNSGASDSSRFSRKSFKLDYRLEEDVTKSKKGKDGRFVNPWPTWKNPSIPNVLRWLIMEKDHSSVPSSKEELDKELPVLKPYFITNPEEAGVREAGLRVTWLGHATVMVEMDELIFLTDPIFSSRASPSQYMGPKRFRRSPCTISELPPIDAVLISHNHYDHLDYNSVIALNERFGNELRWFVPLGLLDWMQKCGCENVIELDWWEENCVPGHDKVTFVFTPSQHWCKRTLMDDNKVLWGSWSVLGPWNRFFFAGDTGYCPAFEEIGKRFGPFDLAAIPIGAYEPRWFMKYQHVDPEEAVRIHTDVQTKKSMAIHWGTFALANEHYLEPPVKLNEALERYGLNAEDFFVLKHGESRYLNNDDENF
Chain of CB1R (P21554 whole entry): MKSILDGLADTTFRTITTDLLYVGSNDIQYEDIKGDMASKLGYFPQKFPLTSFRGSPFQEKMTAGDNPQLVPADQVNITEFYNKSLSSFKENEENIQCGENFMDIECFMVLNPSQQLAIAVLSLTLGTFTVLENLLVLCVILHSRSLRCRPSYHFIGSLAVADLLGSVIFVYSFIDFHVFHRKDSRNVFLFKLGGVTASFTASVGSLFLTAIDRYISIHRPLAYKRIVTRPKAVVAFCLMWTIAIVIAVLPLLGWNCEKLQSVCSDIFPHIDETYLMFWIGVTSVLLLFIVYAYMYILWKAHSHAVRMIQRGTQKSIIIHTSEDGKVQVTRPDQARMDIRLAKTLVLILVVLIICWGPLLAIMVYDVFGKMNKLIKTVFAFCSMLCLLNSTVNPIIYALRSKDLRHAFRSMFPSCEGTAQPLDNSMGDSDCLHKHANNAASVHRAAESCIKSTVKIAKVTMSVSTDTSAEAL
Chain of CB2R (P34972 whole entry): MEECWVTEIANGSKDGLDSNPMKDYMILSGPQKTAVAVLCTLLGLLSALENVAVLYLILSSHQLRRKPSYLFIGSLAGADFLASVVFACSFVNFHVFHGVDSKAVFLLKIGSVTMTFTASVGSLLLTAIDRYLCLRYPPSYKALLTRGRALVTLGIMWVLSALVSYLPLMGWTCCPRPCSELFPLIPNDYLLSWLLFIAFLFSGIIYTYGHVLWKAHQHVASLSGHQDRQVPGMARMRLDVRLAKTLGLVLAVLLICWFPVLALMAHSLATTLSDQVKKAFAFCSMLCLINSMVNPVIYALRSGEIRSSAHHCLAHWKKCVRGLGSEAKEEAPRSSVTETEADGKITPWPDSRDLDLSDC

`NC(=O)c1ccn(-c2cccc(OC(=O)NCCCCCCc3ccccc3)c2)c1` [Example 4, (6-phenyl-hexyl)-carbamic acid 3-(3-carbamoyl-pyrrol-1-yl)-phenyl ester]: the “inhibitory activity on TRPV1” value with TRPV1 was “−−−− (1000 times [IC50] with an inhibitory activity on the target <60%)”. Besides, the IC50 (in general, the concentration at which inhibition is half-maximal) in [1] (37° C., 15 min, pH 9.0) is less than 10 nM. In addition, in assay [1] (Lineweaver-Burk analysis), the Ki (commonly the dissociation constant of the complex between target and ligand, obtained from inhibition or displacement) is less than 10 nM. The “inhibitory activity on CB1R” value on CB1R is “−−−− (1000 times [IC50] with an inhibitory activity on the target <60%)”. For the same molecule, the “inhibitory activity on DAGL” value in the assay with DAGL is “−−−− (1000 times [IC50] with an inhibitory activity on the target <60%)”. In the assay on AMT, the “AMT, % @ 1 μM” value is on record as 80% @ 1 μM. The “inhibitory activity on CB2R” value at CB2R was “−−−− (1000 times [IC50] with an inhibitory activity on the target <60%)”. The “analgesic activity, dose response” value is “did exert analgesic activity” in the assay with mechanical hyperalgesia (30 mg/kg (FIGS. 2, 3 and 4)); “higher effect” in the assay on mechanical hyperalgesia (100 mg/kg, compared with 30 mg/kg (FIGS. 2, 3 and 4)). Besides, in the assay on mechanical hyperalgesia (acute oral treatment, 30 mg/kg (FIG. 1)), the “analgesic activity (nociceptive threshold, paw withdrawal)” value was “significant analgesic activity”. Also, at NAPE-PLD, the “inhibitory activity on NAPE-PLD” value was “−−−− (1000 times [IC50] with an inhibitory activity on the target <60%)”. The “inhibitory activity on MAGL” value at MAGL was “−−−− (1000 times [IC50] with an inhibitory activity on the target <60%)”.
In the case of `NC(=O)c1cccc(-c2cccc(OC(=O)NC3CCCCC3)c2)c1` [URB597], in the assay with pain [2], the “analgesic efficacy in the rat hot plate test” value was “analgesic efficacy”. Further, the “analgesic activity (nociceptive threshold, paw withdrawal)” value with mechanical hyperalgesia (50 mg/kg (FIG. 1)) is listed as “did not show any activity”. In addition, the “efficacy in the zero plus maze animal model of anxiety” value with anxiety was “efficacious”. Also, in the assay on pain [3], the “analgesic efficacy in the rat formalin test” value was “analgesic efficacy”.
